Bounds are passed on as bounds.

The first test deals with T1, ASIC1a (Homo sapiens, UniProt P78348).
T1 sequence (P78348 1-528): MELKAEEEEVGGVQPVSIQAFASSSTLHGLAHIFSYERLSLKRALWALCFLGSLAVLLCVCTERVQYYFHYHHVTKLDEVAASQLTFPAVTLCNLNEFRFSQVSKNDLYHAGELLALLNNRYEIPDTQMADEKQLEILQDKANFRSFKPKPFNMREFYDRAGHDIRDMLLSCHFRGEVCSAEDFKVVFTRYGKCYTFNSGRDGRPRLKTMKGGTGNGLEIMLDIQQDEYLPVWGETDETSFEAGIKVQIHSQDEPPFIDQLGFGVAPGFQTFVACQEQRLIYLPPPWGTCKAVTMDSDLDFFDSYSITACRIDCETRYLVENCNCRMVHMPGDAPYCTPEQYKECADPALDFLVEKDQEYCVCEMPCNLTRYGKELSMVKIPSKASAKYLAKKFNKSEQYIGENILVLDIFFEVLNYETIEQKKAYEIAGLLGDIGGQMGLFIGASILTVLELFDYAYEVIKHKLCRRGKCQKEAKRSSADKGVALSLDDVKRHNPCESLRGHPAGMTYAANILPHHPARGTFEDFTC
As to the kind of experiment: Two-electrode voltage clamp in Xenopus laevis oocytes (Xo), acid-induced currents. Format: cell-based. The arrangement: expressed in transfected cells; host or cells: Xenopus laevis oocytes (nuclear microinjection of expression vector such as pcDNA3). The note with it: 30 μM, Xenopus oocytes; read-out: % inh. at 30 μM (Xo). On the procedure: Two-electrode voltage clamp electrophysiological assays in Xenopus laevis oocytes expressing gated ion channels are performed as follows:
Oocytes are surgically removed from adult Xenopus laevis and treated for 2 h at room temperature with 1 mg/ml type I collagenase (Sigma) in Barth's solution under mild agitation. Selected oocytes at stage IV-V are defolliculated manually before nuclear microinjection of 2.5-5 ng of a suitable expression vector, such as pcDNA3, comprising the nucleotide sequence encoding a gated ion channel subunit protein. In such an experiment, the oocytes express homomultimeric proton-gated ion channels on their surface. In an alternate experiment, one, two, three or more vectors comprising the coding sequences for distinct gated ion channel subunits are co-injected in the oocyte nuclei. In the latter case, oocytes express heteromultimeric proton-gated ion channels. For example, ASIC2a and/or ASIC3 subunits in pcDNA3 vector are co-injected at a 1:1 cDNA ratio. After 2-4 days of expression at 19° C. in Barth's solution containing […] gentamicin and 1.8 mM CaCl2, gated ion channels are activated by applying an acidic solution (pH<7) and currents are recorded in a two electrode voltage-clamp configuration, using an OC-725B amplifier (Warner Instruments). Currents are acquired and digitized at 500 Hz on an Apple Imac G3 computer with an A/D NB-MIO-16XL interface (National Instruments) and recorded traces are post-filtered at 100 Hz in Axograph (Axon Instruments) (Neher, E. and Sakmann, B. (1976) Nature 260:799-802). Once impaled with the microelectrodes, oocytes are continuously superfused at 10-12 ml/min with a modified Ringer's solution containing 97 mM NaCl, 2 mM KCl, 1.8 mM CaCl2, and 10 mM HEPES brought to pH 7.4 with NaOH (Control Ringer). Test Ringer solution is prepared by replacing HEPES with MES and adjusting the pH to the desired acidic value. Compounds of the present invention are prepared in both the Control and Test Ringer solutions and applied to oocytes at room temperature through a computer-controlled switching valve system. Osmolarity of all solutions is adjusted to 235 mOsm with choline chloride. Similarly, recordings can also be acquired in an automated multichannel oocytes system as the OpusExpress™ (Molecular Devices, Sunnyvale, USA).
FIGS. 1A and 2A illustrate the inhibitory effects of Compounds 203 and 206 on acid-induced activation of recombinant homomeric hASIC1a channels.
Background: Two-electrode voltage clamp is typically applied to oocytes expressing channels or transporters.
`CN1CCc2c(-c3ccccc3)cc3c(c2C1)NC(=O)/C3=N/OC1CCCCO1` (centres unmarked) [Compound 61]: the inhibition at 30 µM was > 50%.

The same test, now with this note: 50 μM, Xenopus oocytes; read-out: % inh. at 50 μM (Xo).
`CN1CCc2c(-c3ccccc3)cc3c(c2C1)NC(=O)C3=NNC(=O)C(N)=O` [Compound 107]: the inhibition at 50 µM was 20 to 40%.
Still for that read-out and setting: the same measure for `CN1CCc2c(-c3ccccc3)cc3ncc(O)nc3c2C1` [Compound 101]: < 25%; for `CCN1CCc2c(-c3ccccc3)cc3[nH]c(=O)[nH]c3c2C1` [Compound 222]: < 25%; for `CC(=O)Nc1c(C(N)=O)cc(-c2ccccc2)c2c1CN(C)CC2` [Compound 164]: < 25%.
Same read-out and setting: to `CC(C)(C)OC(=O)N1CCc2c(-c3ccccc3)ccc(N)c2C1` [Compound 168] belongs < 25%; to `CCN(CC)C(=O)c1cc(-c2cc(F)ccc2OC)cc(C)c1NC(=O)N(C)C` [Compound 191, 4-(3,3-Dimethyl-ureido)-5′-fluoro-2′-methoxy-5-methyl-biphenyl-3-carboxylic acid diethylamide], < 25%; to `COC(=O)CN(C(C)=O)c1ccc(-c2ccccc2)c2c1CN(C)CC2` [Compound 169], < 25%.
Same read-out and setting: to `CN1CCc2c(-c3ccccc3)cc3c(c2C1)NCC/C3=N/O` [Compound 96] belongs 20 to 40%; to `CN1CCc2c(-c3ccccc3)cc(C(=O)NOCc3ccccc3)c(N)c2C1` [Compound 166], < 25%.
Take `COC(=O)CNc1ccc(-c2ccccc2)c2c1CN(C)CC2` [Compound 205, (2-Methyl-5-phenyl-1,2,3,4-tetrahydro-isoquinolin-8-ylamino)-acetic acid methyl ester]: the inhibition at 50 µM lay within 20 to 40%.
On the same count and under the same terms, the same measure for `CCOC(=O)CN(Cc1ccccc1)Cc1ccc(-c2ccccc2)c2c1CN(C(=O)OCC)CC2` [Compound 122]: 20 to 40%; for `CCN(CC)C(=O)c1cc(-c2cc(F)ccc2OC)cc(C)c1NC(=O)N1CCNC1=O` [Compound 192, 2-Oxo-imidazolidine-1-carboxylic acid (5-diethylcarbamoyl-5′-fluoro-2′-methoxy-3-methyl-biphenyl-4-yl)-amide]: < 25%; for `CN1CCc2c(-c3ccccc3)cc(C#N)c(Cl)c2C1` [Compound 176]: < 25%.
Still for that read-out and setting: the same measure for `COc1ccc(F)cc1Oc1ccc([N+](=O)[O-])c2c[n+](C)ccc12` [Compound 11]: < 25%; for `COc1ccc(F)cc1Nc1ccc([N+](=O)[O-])c2c1CCN(C)C2` [Compound 6]: < 25%.
Same read-out and setting: to `COC(=O)c1ccccc1CO/N=C1/C(=O)Nc2c1cc(-c1ccccc1)c1c2CN(C)CC1` [Compound 65] belongs 20 to 40%; to `COc1ccc(F)cc1Oc1ccc([N+](=O)[O-])c2c1CCN(C)C2` [Compound 10], < 25%; to `COc1ccc(F)cc1Oc1cc2c(c3c1CCN(C)C3)NC(=O)C2=O` [Compound 13], < 25%.
With `CCN(CC)C(=O)c1cc(-c2cc(F)ccc2OC)cc(C)c1N(C(=O)N1CCOCC1)C(=O)N1CCOCC1` [Compound 190, Morpholine-4-carboxylic acid (5-diethylcarbamoyl-5′-fluoro-2′-methoxy-3-methyl-biphenyl-4-yl)-(morpholine-4-carbonyl)-amide], the inhibition at 50 µM is < 25%.
Still for that read-out and setting: the same measure for `CCOC(=O)CC(=O)NN=C1C(=O)Nc2c1cc(-c1ccccc1)c1c2CN(C)CC1` [Compound 110]: < 25%; for `CC(C)(C)OC(=O)N1CCc2c(-c3ccccc3)ccc(NCC(=O)O)c2C1` [Compound 165]: 20 to 40%.

Still in this test, the particulars now being: Xenopus oocytes, table value; read-out: IC50 (Xo).
With `CCOC(=O)CNc1ccc(-c2ccccc2)c2c1CN(C)CC2` [Compound 204, (2-Methyl-5-phenyl-1,2,3,4-tetrahydro-isoquinolin-8-ylamino)-acetic acid ethyl ester], the IC50 is > 50 µM.

What is called IC50 is the point on the concentration scale where inhibition reaches its midpoint.

Values taken from patent publication US20080004272A1, “Compositions and methods for modulating gated ion channels” (PainCeptor Pharma Corporation, priority 2006, published 2008).
